Values joined by “and” are separate entries in the source; they are usually repeats but may differ in a detail not shown here. Identical values can stand only once. Like-named read-outs stand apart in the source and are kept apart here.
Legend:
physchem = conditions: for CO release rate relative to CORCB-1: acid forms; for auto-decomposition of salts (in words): salts in D2O
Protocol: The kinetics of compound decomposition was followed by observing the ratio of the amount of free amine group to the original compound using ^1H NMR. For instance, Hexamethylenetetramine carboxyborane (CORCB-1) in D2O at the concentration of 12 mg/mL was incubated at 37° C. in the standard NMR tube. ^1H NMR spectra were obtained at different time points to study the kinetics of product formation. […] The ratio of integrated peaks were used for determining the percent of each species present and plotted as a function of time to show the kinetics of auto-decomposition.
^1H, ^11B, and ^13C NMR spectra were recorded at different time points to study the kinetics as well as to observe transformation of CORCB-1 into the products.
In order to determine whether CO is produced in physiological condition, CORCB acid forms were dissolved in aqueous solution at neutral pH. The solution was then subjected to incubation at 37° C. for extended period of time. For studies using NMR, CORCBs were dissolved in D2O. The kinetics of CORCB molecules breaking down to produce CO is determined by taking ^1H NMR spectra at various time points (FIG. 3).
CORCB sodium and ammonium salts were also tested for decomposition by using ^1H NMR spectroscopy. Samples were set up as in Example 1 and rate of decomposition measured (FIG. 4).

[1] = CO released on auto-decomposition in water at 37° C., head space measured with CO meter; format: physicochemical; conditions: for CO release rate at 24 hours, CO meter, Autodecomposition / % CO liberated at 24 hours by CO meter / CO release (in words), CO meter: 37° C., 24 hours; for Rate of % CO released by CORCBs, Autodecomposition / Rate of % CO released by CORCB sodium salts, Autodecomposition: per 24 hour
Protocol: (§1) A test to confirm that CO is one of the decomposition products from CORCBs is done by utilizing commercially available CO meter. Four mole of the compounds at the concentrations of 6-12 mg/mL in aqueous solution was incubated at 37° C. in a sealed vessel with 50 mL gas space. CO meter was used to read the concentration of liberated CO gas from the solution. Measurement by CO meter in ppm, after converting to the micromole amount, was used for calculating the percent CO released based on the original amount of compound.
CO liberated from the molecules and coming out to the head space are detected and quantified by using CO meter.

[2] = Decomposition (amine release) in the presence of H2O2 monitored by 1H NMR; format: physicochemical; conditions: for Decomposition rate at 24 hours, 1H NMR, With 1.5x H2O2: 1.5 equivalents H2O2, 37° C.
Protocol: (§2) The two tested are the common ROS formed naturally in the cells—a non-radical hydrogen peroxide (H2O2) and Fenton reagent which is a more reactive hydroxyl radical (.OH) formed from Fe^2+ and H2O2. Four mole of CORCB compounds were mixed in an aqueous solution with ROS and incubated in a sealed vessel. At respective times, the head space air was injected into the meter to read the amount of CO produced. For analysis by NMR spectroscopy, the reaction mixture was prepared in NMR tube in D2O solvent and incubated for the amount of time indicated.
The reaction with H2O2 is slow-acting, therefore, NMR spectroscopy can be used for monitoring the rate.

[3] = CO released in the presence of H2O2, CO meter; format: physicochemical; conditions: for CO released with 3 equivalents H2O2: 3 equivalents H2O2, 12 hours at 37° C. (FIG. 9); for Rate of % CO released by CORCBs, With H2O2: H2O2 equivalents not given
Protocol: as §1, §2

[4] = CO released in the presence of Fenton reagent (hydroxyl radical), CO meter; format: physicochemical; conditions: per 5 minutes
Protocol: as §1
as §2, with “All amine carboxyboranes express a faster CO release rate when incubated with the reactive oxygen species. The” for “The”, “indicated. While some CORCBs have increased amount of CO produced when treated with 3 times equivalents of H2O2, CORCB-1 produces similar or less amount of CO. In every sample, either acid or salt form, the hydroxyl radical extracts the amount of CO to a much higher magnitude within a very short amount of time.” for “indicated.”

[5] = system: fibroblast tumor cells (Hs 895.T) and normal fibroblast cells (Hs 895.Sk); conditions: human, 48 h, 1 mM
Protocol: Cells were seeded at the density of 3×10^3 cells per well in 96-well plate with different concentrations of CORCBs in DMEM media without FBS, and incubated at 37° C. with 5% CO2 for 2 days.

RAW264.7 cells = experiment: Cytotoxicity / cell viability, Cell Titer Blue assay
Protocol: To test the anti-inflammatory effect of CORCBs, mouse macrophage cells (RAW264.7) were used. 2×10^4 cells per well was seeded in 96-well plate with different concentrations of CORCBs. Cells were incubated in DMEM with 10% FBS at 37° C. and 5% CO2 for 24 hours. LPS (100 ng/mL) was then added and incubated for 4 additional hours. The media containing secreted inflammatory cytokines were collected and these cells were subjected to cell viability test to check their viability.
Cytotoxicity of CORCBs was tested with RAW264.7 cells using Cell Titer Blue assay. In brief, cells were seeded at the density of 2×10^4 cells per well in 96-well plate with different concentrations of CORCBs. Cells were incubated in DMEM with 10% FBS at 37° C. and 5% CO2 for 24 hours. Cell Titer Blue reagent was added into the wells and incubated for 4 more hours in the normal cell growth conditions. The fluorescence signal of the converted reagent resulted from the viable cells was measured.

[6] = Solubility in water / D2O; conditions: water or D2O
[7] = system: normal human skin fibroblast cells (Hs 895.Sk)
Protocol: This was tested by using a chemotherapy drug, imatinib, in normal human skin fibroblast cells (Hs 895.Sk). The cultures were treated with 20 μM and 40 μM concentration of imatinib as controls to see their toxicity. Samples with mixtures of CORCB-1 and imatinib were also incubated and cell viability was determined on 2, 4, and 6 days. Media was exchanged every 2 days with fresh reagents.

[8] = 24 hours, 1.5 equivalents H2O2, 37° C.

O=C(O)B[n+]1ccccc1
Decomposition rate at 24 hours, 1H NMR, Autodecomposition (physchem; 37° C.): 0.40% | CO release rate relative to CORCB-1 (physchem; D2O, 37° C.): much slower CO release rates than CORCB-1 | CO release rate at 24 hours, CO meter, Autodecomposition [1]: 3% | Rate of % CO released by CORCBs, Autodecomposition [1]: 2.99 ± 0.06% | Decomposition rate at 24 hours, 1H NMR, With 1.5x H2O2 [2]: 37.50% | CO released with 3 equivalents H2O2 [3]: about 10% | CO release rate at 24 hours, CO meter, With 1.5x H2O2 [3, 8]: 1.00% | Rate of % CO released by CORCBs, With H2O2 ([3]; per 24 hour): 20.22 ± 0.35% | Rate of % CO released by CORCBs, With Fenton Reagent [4]: 72.64 ± 2.57%

CN1CCC[C@H]1c1ccc[n+](BC(=O)O)c1
% decomposed at 24 hours by 1H NMR (physchem; 37° C.): 1.0% | Decomposition rate at 24 hours, 1H NMR, Autodecomposition (physchem; 37° C.): 1% | CO release rate relative to CORCB-1 (physchem; D2O, 37° C.): much slower CO release rates than CORCB-1 | % CO liberated at 24 hours by CO meter [1]: 0.86% | CO release (in words), CO meter [1]: much slower rate than the others | CO release rate at 24 hours, CO meter, Autodecomposition [1]: 0.86% | Decomposition rate at 24 hours, 1H NMR, With 1.5x H2O2 [2]: 35.90% | CO release rate at 24 hours, CO meter, With 1.5x H2O2 [3]: 0.50%

NC12CC3CC(CC(C3)C1)C2 [Amantadine, reference compound]
cells left (viability) [5]: about 20%

CC(=O)Nc1ccc(OC(=O)B[N+]23CN4CN(CN(C4)C2)C3)cc1 [CORCB-1-TY, hexamethylenetetramine carboacetaminophenborane]
% decomposed at 24 hours by 1H NMR (physchem; 37° C.): 11.3% | Decomposition rate at 24 hours, 1H NMR, Autodecomposition (physchem; 37° C.): 11.30% | time to decompose to completion (physchem; D2O, 37° C.): 12 days | % CO liberated at 24 hours by CO meter [1]: 12.3% | CO release rate at 24 hours, CO meter, Autodecomposition [1]: 12.30%

C[N+](C)(C)[BH2-]C(=O)O [CORCB-3, trimethylamine carboxyborane]
CO release rate relative to CORCB-1 (physchem; D2O, 37° C.): much slower CO release rates than CORCB-1 | rate of auto-decomposition (physchem; as stated in Example 10): ~3 % per day | CO release (in words), CO meter [1]: negligible | Rate of % CO released by CORCBs, Autodecomposition [1]: 0.13 ± 0.01% | Decomposition rate at 24 hours, 1H NMR, With 1.5x H2O2 [2]: 44.50% | CO released with 3 equivalents H2O2 [3]: about 10% | CO release rate at 24 hours, CO meter, With 1.5x H2O2 [3, 8]: 2.70% | Rate of % CO released by CORCBs, With H2O2 ([3]; per 24 hour): 18.73 ± 0.24% | Rate of % CO released by CORCBs, With Fenton Reagent [4]: 76.64 ± 1.33% | cytotoxicity / cell growth (in words) (RAW264.7 cells; 0.5-10 mM (up to 10 mM), 24 hours): not toxic at the levels tested | cell viability after the TNF-α assay (in words) (RAW264.7 cells; same cells as TNF-α assay): all cells remain viable

C[C@]12CC3CC([NH2+][BH2-]C(=O)O)(C1)C[C@@](C)(C3)C2 [CORCB-4, memantine carboxyborane]
Decomposition rate at 24 hours, 1H NMR, Autodecomposition (physchem; 37° C.): not soluble | CO release rate at 24 hours, CO meter, Autodecomposition [1]: not soluble | solubility in water [6]: low solubility in water

OO [H2O2, hydrogen peroxide, reference compound]
viability (RAW264.7 cells; 1 mM, after 24 hours, untreated cells = 100%): 44%

C1N2CN3CN1CN(C2)C3 [HMTA, hexamethylenetetramine, reference compound]
cytotoxicity at 2 mM (in words) (RAW264.7 cells; 2 mM, 24 hours): most cells losing viability

N.O=C(O)[BH2-][N+]12CN3CN(CN(C3)C1)C2 [NH4-CORCB-1]
Decomposition rate at 24 hours, 1H NMR, Autodecomposition (physchem; 37° C.): 26.40% | CO release rate at 24 hours, CO meter, Autodecomposition [1]: 28.70%

N.O=C(O)[BH2-][n+]1ccccc1 [NH4-CORCB-2]
Decomposition rate at 24 hours, 1H NMR, Autodecomposition (physchem; 37° C.): 0.03% | CO release rate at 24 hours, CO meter, Autodecomposition [1]: not measurable

CC12CC3CC(C)(C1)CC([NH2+][BH2-]C(=O)O)(C3)C2.N [NH4-CORCB-4]
Decomposition rate at 24 hours, 1H NMR, Autodecomposition (physchem; 37° C.): 12.80% | decomposition in 12 days (physchem; ammonium salt, 12 days, 37° C.): about 13% | CO release rate at 24 hours, CO meter, Autodecomposition [1]: not soluble | solubility in water [6]: soluble in water

O=C([O-])[BH2-][N+]12CN3CN(CN(C3)C1)C2.[Na+] [Na-CORCB-1]
% decomposed at 24 hours by 1H NMR (physchem; 37° C.): 33.1% | Decomposition rate at 24 hours, 1H NMR, Autodecomposition (physchem; 37° C.): 33.20% | % CO liberated at 24 hours by CO meter [1]: 33% | CO release rate at 24 hours, CO meter, Autodecomposition [1]: 33.10% | Rate of % CO released by CORCB sodium salts, Autodecomposition [1]: 33.12 ± 0.33% | Rate of % CO released by CORCB sodium salts, With H2O2 [3]: 11.99 ± 0.19% | Rate of % CO released by CORCB sodium salts, With Fenton Reagent [4]: 41.61 ± 0.57%

O=C([O-])[BH2-][n+]1ccccc1.[Na+] [Na-CORCB-2]
Decomposition rate at 24 hours, 1H NMR, Autodecomposition (physchem; 37° C.): 0.46% | CO release rate at 24 hours, CO meter, Autodecomposition [1]: 0.36% | Rate of % CO released by CORCB sodium salts, Autodecomposition [1]: 0.36 ± 0.13% | Rate of % CO released by CORCB sodium salts, With H2O2 ([3]; sodium salts, per 24 hour): 12.66 ± 0.21% | Rate of % CO released by CORCB sodium salts, With Fenton Reagent [4]: 43.46 ± 0.73%

C[N+](C)(C)[BH2-]C(=O)O [Na-CORCB-3]
Decomposition rate at 24 hours, 1H NMR, Autodecomposition (physchem; 37° C.): not measurable | auto-decomposition of salts (in words) (physchem; 37° C.): insignificant amounts of decomposition | CO release rate at 24 hours, CO meter, Autodecomposition [1]: not measurable | Rate of % CO released by CORCB sodium salts, Autodecomposition [1]: 0.14 ± 0.02% | Rate of % CO released by CORCB sodium salts, With H2O2 ([3]; sodium salts, per 24 hour): 7.41 ± 0.16% | Rate of % CO released by CORCB sodium salts, With Fenton Reagent [4]: 33.46 ± 0.90%

CC12CC3CC(C)(C1)CC([NH2+][BH2-]C(=O)[O-])(C3)C2.[Na+] [Na-CORCB-4, Memantinecarboxyborane sodium salt]
Decomposition rate at 24 hours, 1H NMR, Autodecomposition (physchem; 37° C.): not measurable | auto-decomposition of salts (in words) (physchem; 37° C., listed as Sodium salt of CORCB-4, sodium salt): insignificant amounts of decomposition | auto-decomposition of salts (in words) (physchem; 37° C., listed as sodium salt of CORCB-4, sodium salt): does not decompose in measurable amount | CO release rate at 24 hours, CO meter, Autodecomposition [1]: 0.06% | % decomposition / free amine released by 1H NMR with H2O2 ([2]; 1.5 equivalents H2O2, 24 hours, sodium salt): 96.4% and ~100% | Decomposition rate at 24 hours, 1H NMR, With 1.5x H2O2 [2]: 96.40% | % CO produced by CO meter with H2O2 ([3]; 1.5 equivalents H2O2, 24 hours): 1.6% | CO release rate at 24 hours, CO meter, With 1.5x H2O2 [3, 8]: 1.60% | solubility in water [6]: soluble in water

Cc1ccc(NC(=O)c2ccc(CN3CCN(C)CC3)cc2)cc1Nc1nccc(-c2cccnc2)n1 [imatinib]
cell viability with 20 μM imatinib (in words) ([7]; 20 μM, by 6 days): killed | cell viability with 40 μM imatinib (in words) ([7]; 40 μM, at 4 days): lose their viability
